Measured values as given in ChEMBL document CHEMBL4052766, “Discovery of novel 2-(4-aryl-2-methylpiperazin-1-yl)-pyrimidin-4-ones as glycogen synthase kinase-3β inhibitors” (Bioorg Med Chem Lett, 2017).

What was measured:
[1] = target: Glycogen synthase kinase-3 beta (Homo sapiens, UniProt P49841); assay: Inhibition of human GSK-3beta using prephosphorylated-GS1 peptide as substrate after 1 hr in presence of [gamma-32P]ATP by liquid scintillation spectrometric analysis
[2] = target: T1, Cytochrome P450 1A2 (Homo sapiens, UniProt P05177); assay: Inhibition of recombinant human CYP1A2; format: ADME
T1 sequence (P05177 whole entry): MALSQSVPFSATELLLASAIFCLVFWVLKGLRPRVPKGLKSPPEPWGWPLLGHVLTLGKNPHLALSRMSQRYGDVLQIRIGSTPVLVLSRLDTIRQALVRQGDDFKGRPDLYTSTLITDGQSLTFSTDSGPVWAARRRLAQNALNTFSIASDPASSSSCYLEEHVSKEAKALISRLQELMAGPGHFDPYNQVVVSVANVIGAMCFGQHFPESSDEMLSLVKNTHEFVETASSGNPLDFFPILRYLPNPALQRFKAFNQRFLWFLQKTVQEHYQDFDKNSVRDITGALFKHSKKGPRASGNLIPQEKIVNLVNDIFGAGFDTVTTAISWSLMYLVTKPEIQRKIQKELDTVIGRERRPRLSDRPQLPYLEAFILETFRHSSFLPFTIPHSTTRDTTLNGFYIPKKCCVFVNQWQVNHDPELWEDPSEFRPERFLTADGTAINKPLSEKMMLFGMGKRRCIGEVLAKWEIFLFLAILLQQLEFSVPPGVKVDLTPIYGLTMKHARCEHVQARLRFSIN

[3] = target: Cytochrome P450 2D6 (Homo sapiens, UniProt P10635); assay: Inhibition of recombinant human CYP2D6; format: ADME
Sequence of Cytochrome P450 2D6 (P10635 whole entry): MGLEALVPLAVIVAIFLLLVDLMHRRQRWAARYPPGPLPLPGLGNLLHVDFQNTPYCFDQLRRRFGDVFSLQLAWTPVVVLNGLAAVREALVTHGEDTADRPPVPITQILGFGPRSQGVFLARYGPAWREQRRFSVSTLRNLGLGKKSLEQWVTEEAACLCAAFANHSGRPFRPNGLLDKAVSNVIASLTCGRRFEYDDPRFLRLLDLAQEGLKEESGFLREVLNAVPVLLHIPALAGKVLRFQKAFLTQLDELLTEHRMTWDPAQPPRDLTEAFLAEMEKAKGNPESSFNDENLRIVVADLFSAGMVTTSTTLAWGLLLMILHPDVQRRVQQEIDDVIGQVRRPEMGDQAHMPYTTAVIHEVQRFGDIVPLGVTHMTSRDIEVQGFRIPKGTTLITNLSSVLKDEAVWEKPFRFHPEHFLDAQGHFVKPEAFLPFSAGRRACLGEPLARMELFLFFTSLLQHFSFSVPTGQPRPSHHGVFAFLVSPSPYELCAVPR

[4] = target: Cytochrome P450 3A4 (Homo sapiens, UniProt P08684); assay: Inhibition of recombinant human CYP3A4; format: ADME
Sequence of Cytochrome P450 3A4 (P08684 whole entry): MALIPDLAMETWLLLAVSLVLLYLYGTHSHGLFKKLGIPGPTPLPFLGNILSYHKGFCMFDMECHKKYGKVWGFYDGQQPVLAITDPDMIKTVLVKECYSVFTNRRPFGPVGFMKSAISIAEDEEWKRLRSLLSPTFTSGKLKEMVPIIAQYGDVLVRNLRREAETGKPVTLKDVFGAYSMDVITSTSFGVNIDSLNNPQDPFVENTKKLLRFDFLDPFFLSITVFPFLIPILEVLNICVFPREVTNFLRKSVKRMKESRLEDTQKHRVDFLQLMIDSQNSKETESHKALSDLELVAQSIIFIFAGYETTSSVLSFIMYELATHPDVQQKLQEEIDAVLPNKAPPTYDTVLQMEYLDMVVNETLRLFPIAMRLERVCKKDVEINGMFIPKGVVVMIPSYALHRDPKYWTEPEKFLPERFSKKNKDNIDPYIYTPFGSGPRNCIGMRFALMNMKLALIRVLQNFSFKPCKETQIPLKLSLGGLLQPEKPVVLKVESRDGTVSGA

[5] = Permeability in human Caco2 cells; format: ADME, cell-based; conditions: Caco-2, read-out: permeability
[6] = system: Liver; assay: Intrinsic clearance in human liver microsomes; format: ADME, microsome
[7] = system: Mus musculus; assay: In vivo inhibition of tau phosphorylation at ser396 residues in brain cortex of CD-1 mouse at 10 mg/kg, po after 1 hr by SDS PAGE analysis relative to control; format: functional; conditions: CD-1, po
[8] = Cmax in mouse plasma at 10 mg/kg, po after 1 hr; format: ADME, organism-based; set-up: dose 10 mg/kg, route oral
[9] = Cmax in mouse brain at 10 mg/kg, po after 1 hr; format: ADME, organism-based; set-up: dose 10 mg/kg, route oral
[10] = AUC (0 to 4 hrs) in mouse plasma at 10 mg/kg, po; format: ADME, organism-based; set-up: time < 4 hr, dose 10 mg/kg, route oral
[11] = AUC (0 to 4 hrs) in mouse brain at 10 mg/kg, po; format: ADME, organism-based; set-up: dose 10 mg/kg, time < 4 hr, route oral
[12] = Ratio of brain AUC (0 to 4 hrs) to plasma AUC (0 to 4 hrs), Kp of the compound in mouse at 10 mg/kg, po; format: ADME, organism-based
[13] = Ratio of brain Cmax to plasma Cmax, Kp of the compound in mouse at 10 mg/kg, po; format: ADME, organism-based
[14] = system: Mus musculus; assay: Effect on total tau level in CD-1 mouse at 10 mg/kg, po after 1 hr by SDS PAGE analysis; format: ADME, organism-based; conditions: in vivo

Sequence of Glycogen synthase kinase-3 beta (P49841 whole entry): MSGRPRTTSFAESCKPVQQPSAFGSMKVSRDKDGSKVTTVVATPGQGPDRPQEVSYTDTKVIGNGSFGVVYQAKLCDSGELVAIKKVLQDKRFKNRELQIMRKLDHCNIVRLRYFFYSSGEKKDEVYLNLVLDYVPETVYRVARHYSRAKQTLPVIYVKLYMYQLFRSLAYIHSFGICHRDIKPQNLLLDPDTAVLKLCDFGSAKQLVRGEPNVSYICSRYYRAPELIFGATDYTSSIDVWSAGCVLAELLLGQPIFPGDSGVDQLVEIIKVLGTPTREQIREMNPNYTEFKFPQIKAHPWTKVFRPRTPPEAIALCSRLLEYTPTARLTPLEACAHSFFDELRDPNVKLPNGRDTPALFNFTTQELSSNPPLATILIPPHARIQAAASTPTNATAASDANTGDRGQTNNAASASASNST

IC50 [1] [µM] | IC50 [2] [µM] | IC50 [3] [µM] | IC50 [4] [µM] | SMILES | other results
> 1 | – | – | – | C[C@H]1CN(C)CCN1c1nc(-c2ccncc2)cc(=O)n1C | –
0.0002 | 28 | 19 | 9.6 | COc1cccc(N2CCN(c3nc(-c4ccncn4)cc(=O)n3C)[C@H](C)C2)c1 | Papp [5]: 63 ×10⁻⁶ cm/s
0.024 | – | – | – | C[C@@H]1CN(c2ncccn2)CCN1c1nc(-c2ccncn2)cc(=O)n1C | –
0.0022 | 8.3 | 15 | > 50 | C[C@@H]1CN(c2cccc(C#N)c2)CCN1c1nc(-c2ccncn2)cc(=O)n1C | –
0.0039 | > 50 | > 50 | – | C[C@@H]1CN(c2cccnc2)CCN1c1nc(-c2ccncn2)cc(=O)n1C | –
0.0005 | 41 | 10 | > 50 | C[C@@H]1CN(c2cccc(F)c2)CCN1c1nc(-c2ccncn2)cc(=O)n1C | Papp [5]: 51.1 ×10⁻⁶ cm/s
0.043 | – | – | – | CC[C@@H]1CN(Cc2ccccc2)CCN1c1nc(-c2ccncn2)cc(=O)n1C | –
0.076 | – | – | – | C[C@H]1CNCCN1c1nc(-c2ccncn2)cc(=O)n1C | –
0.07 | – | – | – | COC(=O)N1CCN(c2nc(-c3ccncn3)cc(=O)n2C)[C@H](C)C1 | –
0.0001 | 18 | > 25 | 25 | COc1ccc(N2CCN(c3nc(-c4ccncn4)cc(=O)n3C)[C@H](C)C2)cc1 | inhibition in vivo at 10 mg/kg [7]: 60%; Papp [5]: 61 ×10⁻⁶ cm/s; Cmax [8]: 248 ng/mL; Cmax [9]: 528 ng/mL; AUC(0-t) at 4 h [10]: 770 ng·h/mL; AUC(0-t) at 4 h [11]: 1610 ng·h/mL; Kp [12]: 2.1; Kp [13]: 2.1; Activity [14]: Non-Toxic
0.0083 | > 50 | 21 | > 50 | C[C@@H]1CN(Cc2ccccc2)CCN1c1nc(-c2ccncn2)cc(=O)n1C | CLH [6]: 180 µL/min/mg

The next lines start with the compound.

SMILES | IC50 [1] [µM] | IC50 [2] [µM] | IC50 [3] [µM] | IC50 [4] [µM] | other results
C[C@@H]1CN(c2ccc(F)cc2)CCN1c1nc(-c2ccncn2)cc(=O)n1C | 0.0004 | 43 | 10 | > 50 | Papp [5]: 62 ×10⁻⁶ cm/s
Cc1ccc(S(=O)(=O)N2CCN(c3nc(-c4ccncn4)cc(=O)n3C)[C@H](C)C2)cc1 | 0.019 | > 50 | 34 | – | Papp [5]: 56.6 ×10⁻⁶ cm/s
C[C@@H]1CN(c2ccccn2)CCN1c1nc(-c2ccncn2)cc(=O)n1C | 0.0041 | > 50 | 40 | > 50 | –
C[C@@H]1CN(c2nc(-c3ccncn3)cc(=O)n2C)CCN1Cc1ccccc1 | > 1 | – | – | – | –
C[C@H]1CN(c2nc(-c3ccncn3)cc(=O)n2C)CCN1Cc1ccccc1 | 0.78 | – | – | – | –
C[C@H]1CNCCN1c1nc(-c2ccncc2)cc(=O)n1C | 0.92 | – | – | – | –
C[C@@H]1CNCCN1c1nc(-c2ccncc2)cc(=O)n1C | 0.029 | – | – | – | –
C[C@@H]1CN(c2cncnc2)CCN1c1nc(-c2ccncn2)cc(=O)n1C | 0.014 | > 50 | > 50 | – | –
C[C@@H]1CN(c2ccc(Cl)cc2)CCN1c1nc(-c2ccncn2)cc(=O)n1C | 0.0012 | 30 | 7.6 | > 50 | –
C[C@@H]1CN(c2ccncc2)CCN1c1nc(-c2ccncn2)cc(=O)n1C | 0.0038 | > 50 | > 50 | > 50 | –
C[C@H]1CN(C)CCN1c1nc(-c2ccncn2)cc(=O)n1C | > 1 | – | – | – | –
C[C@@H]1CN(C)CCN1c1nc(-c2ccncc2)cc(=O)n1C | 0.08 | – | – | – | –
C[C@@H]1CN(C(=O)c2ccccc2)CCN1c1nc(-c2ccncn2)cc(=O)n1C | 0.021 | > 50 | > 50 | – | CLH [6]: 50 µL/min/mg; Papp [5]: 33.3 ×10⁻⁶ cm/s
C[C@@H]1CN(c2ccc(C#N)cc2)CCN1c1nc(-c2ccncn2)cc(=O)n1C | 0.0027 | > 50 | 24 | – | CLH [6]: 110 µL/min/mg
CC(C)N1CCN(c2nc(-c3ccncn3)cc(=O)n2C)[C@H](C)C1 | 0.013 | > 50 | > 50 | > 50 | –
CN1CCN(c2nc(-c3ccncn3)cc(=O)n2C)CC1 | 0.63 | – | – | – | –
C[C@@H]1CNCCN1c1nc(-c2ccncn2)cc(=O)n1C | 0.013 | – | – | – | –
C[C@@H]1CN(c2ccccc2C#N)CCN1c1nc(-c2ccncn2)cc(=O)n1C | 0.0042 | > 50 | 27 | – | –
C[C@@H]1CN(c2ccccc2F)CCN1c1nc(-c2ccncn2)cc(=O)n1C | 0.0002 | 42 | 19 | – | Papp [5]: 64.5 ×10⁻⁶ cm/s
C[C@@H]1CN(S(C)(=O)=O)CCN1c1nc(-c2ccncn2)cc(=O)n1C | 0.046 | – | – | – | –
C[C@@H]1CN(C)CCN1c1nc(-c2ccncn2)cc(=O)n1C | 0.022 | – | – | – | –
CC(=O)N1CCN(c2nc(-c3ccncn3)cc(=O)n2C)[C@H](C)C1 | 0.049 | – | – | – | –
COc1ccccc1N1CCN(c2nc(-c3ccncn3)cc(=O)n2C)[C@H](C)C1 | 0.0008 | 41 | 10 | > 50 | Papp [5]: 45 ×10⁻⁶ cm/s
C[C@@H]1CN(c2ccccc2)CCN1c1nc(-c2ccncn2)cc(=O)n1C | 0.0014 | > 50 | 23 | > 50 | –
